Measured values: ChEMBL document CHEMBL3045904, “Synthesis, AM1 calculation, and biological studies of thiopyran-4-one and their azine derivatives” (2007)
Values after ≈ are worked out from the molar mass of the structure shown. Active and inactive are the calls of the source. The calls are words filed in the database; no cut-off is given here.

How the values were obtained:
Assay type in all cases: functional
[1] = system: Aspergillus niger; experiment: Antifungal activity against Aspergillus niger after 72 to 96 hr by two-fold serial dilution method
[2] = system: Bacillus subtilis; experiment: Antibacterial activity against Bacillus subtilis after 24 hr by two-fold serial dilution method
[3] = system: Candida; experiment: Antifungal activity against Candida-51 after 72 to 96 hr by two-fold serial dilution method
[4] = system: Escherichia coli; experiment: Antibacterial activity against Escherichia coli after 24 hr by two-fold serial dilution method
[5] = system: Enterococcus faecalis; experiment: Antibacterial activity against Enterococcus faecalis after 24 hr by two-fold serial dilution method
[6] = system: Aspergillus flavus; experiment: Antifungal activity against Aspergillus flavus after 72 to 96 hr by two-fold serial dilution method
[7] = system: Candida; experiment: Antifungal activity against Candida-6 after 72 to 96 hr by two-fold serial dilution method
[8] = system: Pseudomonas aeruginosa; experiment: Antibacterial activity against Pseudomonas aeruginosa after 24 hr by twofold serial dilution method
[9] = system: Staphylococcus aureus; experiment: Antibacterial activity against Staphylococcus aureus after 24 hr by two-fold serial dilution method

SMILES | MIC [1] | MIC [2] | MIC [3] | MIC [4] | MIC [5] | MIC [6] | MIC [7] | MIC [8] | MIC [9]
Oc1ccccc1/C=N/N=C1\C[C@@H](c2ccccc2)S[C@@H](c2ccccc2)C1 (relative stereo) | 25 µg/mL (≈ 64.7 µM) | 6.25 µg/mL (≈ 16.2 µM) | 12.5 µg/mL (≈ 32.3 µM) | 12.5 µg/mL (≈ 32.3 µM) | 25 µg/mL (≈ 64.7 µM) | 50 µg/mL (≈ 129 µM) | 12.5 µg/mL (≈ 32.3 µM) | 25 µg/mL (≈ 64.7 µM) | 25 µg/mL (≈ 64.7 µM)
N/N=C1\C[C@@H](c2ccccc2)S[C@@H](c2ccccc2)C1 (relative stereo) | 100 µg/mL (≈ 354 µM) | 100 µg/mL (≈ 354 µM) | 100 µg/mL (≈ 354 µM) | 50 µg/mL (≈ 177 µM) | 100 µg/mL (≈ 354 µM) | 100 µg/mL (≈ 354 µM) | 50 µg/mL (≈ 177 µM) | 100 µg/mL (≈ 354 µM) | 100 µg/mL (≈ 354 µM)
C[C@@H]1[C@H](O)[C@@H](C)/C=C/C=C/C=C/C=C/C=C/C=C/C=C/[C@H](O[C@@H]2O[C@H](C)[C@@H](O)[C@H](N)[C@@H]2O)C[C@@H]2O[C@](O)(C[C@@H](O)C[C@@H](O)[C@H](O)CC[C@@H](O)C[C@@H](O)CC(=O)O[C@H]1C)C[C@H](O)[C@H]2C(=O)O [AMPHOTERICIN B] | 50 µg/mL (≈ 54.1 µM) |  | 25 µg/mL (≈ 27.1 µM) |  |  | 50 µg/mL (≈ 54.1 µM) | 25 µg/mL (≈ 27.1 µM) |  | 
CN[C@@H]1[C@H](O[C@H]2[C@H](O[C@H]3[C@H](O)[C@@H](O)[C@H](N=C(N)N)[C@@H](O)[C@@H]3N=C(N)N)O[C@@H](C)[C@]2(O)C=O)O[C@@H](CO)[C@H](O)[C@H]1O [STREPTOMYCIN] |  | 12.5 µg/mL (≈ 21.5 µM) |  | 12.5 µg/mL (≈ 21.5 µM) | 50 µg/mL (≈ 86 µM) |  |  | 25 µg/mL (≈ 43 µM) | 25 µg/mL (≈ 43 µM)

Continued by falling MIC [2], values first:

MIC [1] | MIC [2] | MIC [3] | MIC [4] | MIC [5] | MIC [6] | MIC [7] | MIC [8] | MIC [9] | SMILES
inactive | 100 µg/mL (≈ 373 µM) | inactive | inactive | inactive | 100 µg/mL (≈ 373 µM) | 100 µg/mL (≈ 373 µM) | inactive | 100 µg/mL (≈ 373 µM) | O=C1C[C@@H](c2ccccc2)S[C@@H](c2ccccc2)C1
inactive | 100 µg/mL (≈ 353 µM) | inactive | inactive | inactive | 100 µg/mL (≈ 353 µM) | 100 µg/mL (≈ 353 µM) | inactive | 100 µg/mL (≈ 353 µM) | O/N=C1\C[C@@H](c2ccccc2)S[C@@H](c2ccccc2)C1
50 µg/mL (≈ 93.8 µM) | 50 µg/mL (≈ 93.8 µM) | 50 µg/mL (≈ 93.8 µM) | 100 µg/mL (≈ 188 µM) | 100 µg/mL (≈ 188 µM) | 100 µg/mL (≈ 188 µM) | 100 µg/mL (≈ 188 µM) | 50 µg/mL (≈ 93.8 µM) | 25 µg/mL (≈ 46.9 µM) | c1ccc([C@@H]2C/C(=N\N=C3/C[C@@H](c4ccccc4)S[C@@H](c4ccccc4)C3)C[C@H](c3ccccc3)S2)cc1
100 µg/mL (≈ 241 µM) | 25 µg/mL (≈ 60.2 µM) | 25 µg/mL (≈ 60.2 µM) | 100 µg/mL (≈ 241 µM) | 50 µg/mL (≈ 120 µM) | 100 µg/mL (≈ 241 µM) | 50 µg/mL (≈ 120 µM) | 50 µg/mL (≈ 120 µM) | 25 µg/mL (≈ 60.2 µM) | O=[N+]([O-])c1ccccc1/C=N/N=C1\C[C@@H](c2ccccc2)S[C@@H](c2ccccc2)C1 (relative stereo)
50 µg/mL (≈ 125 µM) | 6.25 µg/mL (≈ 15.6 µM) | 12.5 µg/mL (≈ 31.2 µM) | 12.5 µg/mL (≈ 31.2 µM) | 25 µg/mL (≈ 62.4 µM) | 100 µg/mL (≈ 250 µM) | 12.5 µg/mL (≈ 31.2 µM) | 50 µg/mL (≈ 125 µM) | 25 µg/mL (≈ 62.4 µM) | COc1ccc(/C=N/N=C2\C[C@@H](c3ccccc3)S[C@@H](c3ccccc3)C2)cc1 (relative stereo)
